Source: patent US20040259179A1, “Sterol markers as diagnostic tools in the prevention of atherosclerotic diseases and as tools to aid in the selection of agents to be used for the prevention and treatment of atherosclerotic disease” (priority 2003, published 2004)
Marks after values point to notes of the source that are not given here.

How the values were obtained:
Type in all cases: in vivo, human
[1] = system: patients with primary hypercholesterolemia; experiment: LDL-C and other lipid parameters by treatment, EZE/ATORVA trial (Example 3); conditions: 12 weeks daily treatment, EZE 10 mg, pooled ATORVA 10-80 mg; for Triglycerides (median) % Change (±SE) from Baseline: median and SE from raw data
Procedure: (§1) A post-hoc analysis of a randomized, double-blind, placebo-controlled trial of primary hypercholesterolemia patients (LDL-C 145-250 mg/dl and TG<350 mg/dl) was conducted. Baseline and endpoint samples of 397 patients were analyzed by GCMS
In this trial, following a 4 week placebo lead-in/diet phase, patients with primary hypercholesterolemia (LDL-C 3.8-6.5 mmol/L [145-250 mg/dL] and TG≦4 mmol/L [350 mg/dL]) were randomized to one of the following daily treatments for 12 weeks: […]

[2] = system: patients with primary hypercholesterolemia; experiment: Non-cholesterol sterol analysis of plasma by GC-MS, EZE/ATORVA trial (Example 3); conditions: for effect on concentrations of sitosterol and campesterol (baseline to endpoint), in words: FIG. 11; for effect on concentrations of sitosterol and campesterol (baseline to endpoint), in words / effect on concentrations of cholesterol precursors lathosterol and desmosterol (baseline to endpoint), in words / effect on ratios of sitosterol:cholesterol and campesterol:cholesterol, in words / effect on ratios of lathosterol:cholesterol and desmosterol:cholesterol, in words: pooled doses, 12 weeks; for effect on concentrations of cholesterol precursors lathosterol and desmosterol (baseline to endpoint), in words: FIG. 13; for effect on ratios of sitosterol:cholesterol and campesterol:cholesterol, in words: Table in FIG. 11; for effect on ratios of lathosterol:cholesterol and desmosterol:cholesterol, in words: Table in FIG. 13; for Campesterol Noncholesterols:Cholesterol Ratio: Mean change / Desmosterol Noncholesterols:Cholesterol Ratio: Mean change / Lathosterol Noncholesterols:Cholesterol Ratio: Mean change / Sitosterol Noncholesterols:Cholesterol Ratio: Mean change / Campesterol % chng LSmean (absolute sterol concentrations) / Desmosterol % chng LSmean (absolute sterol concentrations) / Lathosterol % chng LSmean (absolute sterol concentrations) / Sitosterol % chng LSmean (absolute sterol concentrations): baseline to endpoint, 12 weeks daily treatment, EZE 10 mg, ATORVA pooled; for Campesterol % chng LSmean (absolute sterol concentrations) / Desmosterol % chng LSmean (absolute sterol concentrations) / Lathosterol % chng LSmean (absolute sterol concentrations) / Sitosterol % chng LSmean (absolute sterol concentrations): plasma
Procedure: as §1
In this trial, following a 4 week placebo lead-in/diet phase, patients with primary hypercholesterolemia (LDL-C 3.8-6.5 mmol/L [145-250 mg/dL] and TG≦4 mmol/L [350 mg/dL]) were randomized to one of the following daily treatments for 12 weeks:
Of 628 patients randomized to treatment in the original study, 397 (63%) had evaluable −70° C. plasma samples for both baseline and endpoint visits.
Concentrations of non-cholesterol sterols were measured by gas chromatography-mass spectrometry (GC-MS).
(§2) The primary efficacy parameter was mean percent change in plasma sitosterol concentration from baseline to endpoint comparing EZE/ATORVA (pooled across doses) versus ATORVA (pooled across doses). Other efficacy parameters included mean percent changes in campesterol, lathosterol and desmosterol concentrations as well as mean changes in the ratios of each of these sterols to cholesterol.
(§3) Two-tailed testing was conducted at a=0.05. To compare treatment effects on sterol concentrations and ratios, an ANCOVA model including the fixed effects of treatment, dose, and dose-by-treatment interaction was used with the baseline value as the covariate.

[3] = system: patients with primary hypercholesterolemia; experiment: LDL-C and other lipid parameters by treatment, EZE/SIMVA trial (Example 2); conditions: 12 weeks daily treatment, EZE 10 mg, pooled SIMVA 10-80 mg; for Triglycerides (median) % Change (±SE) from Baseline: median and SE from raw data
Procedure: (§4) A post-hoc analysis of a randomized, double-blind, placebo-controlled trial of primary hypercholesterolemia patients (LDL-C 145-250 mg/dl and TG≦350 mg/dl) was conducted to examine the effects of 12 weeks of daily treatment with ezetimibe (EZE) 10 mg, simvastatin (SIMVA) pooled doses 10-80 mg, or EZE 10 mg/SIMVA 10-80 mg (EZE/SIMVA) coadministration (pooled) on concentrations of phytosterols (sitosterol and campesterol) and cholesterol precursors (lathosterol and desmosterol). Baseline and endpoint plasma samples of 578 patients were analyzed by GC-mass spectrometry
Following a 4 week placebo lead-in/diet phase, patients with primary hypercholesterolemia (LDL-C 145-250 mg/dL and TG≦350 mg/dL) were randomized on one of the following daily treatments for 12 weeks: […]

[4] = system: patients with primary hypercholesterolemia; experiment: Non-cholesterol sterol analysis of plasma by GC-MS, EZE/SIMVA trial (Example 2); conditions: for effect on concentrations of sitosterol and campesterol (baseline to endpoint), in words: FIG. 6; for Campesterol Ratio: Mean change (sterol:cholesterol) / Desmosterol Ratio: Mean change (sterol:cholesterol) / Lathosterol Ratio: Mean change (sterol:cholesterol) / Sitosterol Ratio: Mean change (sterol:cholesterol) / Campesterol % change (Mean % change) / Desmosterol % change (Mean % change) / Lathosterol % change (Mean % change) / Sitosterol % change (Mean % change): baseline to endpoint, 12 weeks daily treatment, EZE 10 mg; for Campesterol Ratio: Mean change (sterol:cholesterol) / Desmosterol Ratio: Mean change (sterol:cholesterol) / Lathosterol Ratio: Mean change (sterol:cholesterol) / Sitosterol Ratio: Mean change (sterol:cholesterol) / Campesterol % change (Mean % change) / Desmosterol % change (Mean % change) / Lathosterol % change (Mean % change): SIMVA pool of all doses; for Campesterol % change (Mean % change) / Desmosterol % change (Mean % change) / Lathosterol % change (Mean % change) / Sitosterol % change (Mean % change): plasma concentration; for Sitosterol % change (Mean % change): SIMVA pool of all doses 10-80 mg
Procedure: as §4
Following a 4 week placebo lead-in/diet phase, patients with primary hypercholesterolemia (LDL-C 145-250 mg/dL and TG≦350 mg/dL) were randomized on one of the following daily treatments for 12 weeks:
Of 668 patients randomized to treatment in the original study, 578 (86%) had evaluable −70° C. plasma samples for both baseline and endpoint visits. Concentrations of non-cholesterol sterols were measured by gas chromatography-mass spectrometry (GC-MS).
as §2, with “EZE/SIMVA” for “EZE/ATORVA”, “SIMVA monotherapy” for “ATORVA”
as §3

Row | SMILES | HDL-C LS Mean % Change (±SE) from Baseline [1] | LDL-C LS Mean % Change (±SE) from Baseline [1] | Total Cholesterol LS Mean % Change (±SE) from Baseline [1] | Triglycerides (median) % Change (±SE) from Baseline [1] | effect on concentrations of sitosterol and campesterol (baseline to endpoint), in words [2] | effect on concentrations of cholesterol precursors lathosterol and desmosterol (baseline to endpoint), in words [2] | effect on ratios of sitosterol:cholesterol and campesterol:cholesterol, in words [2] | effect on ratios of lathosterol:cholesterol and desmosterol:cholesterol, in words [2] | Campesterol Noncholesterols:Cholesterol Ratio: Mean change [2] | Desmosterol Noncholesterols:Cholesterol Ratio: Mean change [2] | Lathosterol Noncholesterols:Cholesterol Ratio: Mean change [2] | Sitosterol Noncholesterols:Cholesterol Ratio: Mean change [2] | Campesterol % chng LSmean (absolute sterol concentrations) [2] | Desmosterol % chng LSmean (absolute sterol concentrations) [2] | Lathosterol % chng LSmean (absolute sterol concentrations) [2] | Sitosterol % chng LSmean (absolute sterol concentrations) [2] | HDL-C LS Mean % Change (±SE) from Baseline [3] [%] | LDL-C LS Mean % Change (±SE) from Baseline [3] [%] | Total Cholesterol LS Mean % Change (±SE) from Baseline [3] [%] | Triglycerides (median) % Change (±SE) from Baseline [3] [%] | further results
1 | CC(C)c1c(C(=O)Nc2ccccc2)c(-c2ccccc2)c(-c2ccc(F)cc2)n1CC[C@@H](O)C[C@@H](O)CC(=O)O [ATORVA, atorvastatin] | 5.21 (0.85) % | −43.56 (1.02) % | −32.96 (0.81) % | −25.83 (1.80) % | significantly increased | large, significant reductions | significantly increased | significantly reduced | 128*^† 10^2 mmol/mol | −34.5*^† 10^2 mmol/mol | −69.8*^† 10^2 mmol/mol | 77.4*^† 10^2 mmol/mol | 10.1^† % | −55.4*^† % | −69.0*^† % | 16.1^† % |  |  |  |  | 
2 | O=C1[C@H](CC[C@H](O)c2ccc(F)cc2)[C@@H](c2ccc(O)cc2)N1c1ccc(F)cc1 [EZE, ezetimibe] | 5.36 (1.71) % | −17.10 (2.06) % | −12.97 (1.63) % | −2.86 (4.54) % | large, significant reductions | significantly increased | significantly reduced | increased | −151* 10^2 mmol/mol | 38.1 10^2 mmol/mol | 56.2* 10^2 mmol/mol | −70.1* 10^2 mmol/mol | −58.2* % | 20.6* % | 34.5* % | −53.8* % | 5.5 ± 1.6 | −18.5 ± 1.8 | −13.5 ± 1.4 | −8.6 ± 3.9 | effect on concentrations of sitosterol and campesterol (baseline to endpoint), in words ([4]; pooled doses, 12 weeks): large, significant reductions; effect on concentrations of cholesterol precursors lathosterol and desmosterol (baseline to endpoint), in words ([4]; FIG. 8, pooled doses, 12 weeks): increased; effect on ratios of sitosterol:cholesterol and campesterol:cholesterol, in words ([4]; Table in FIG. 6, pooled doses, 12 weeks): significantly reduced; effect on ratios of lathosterol:cholesterol and desmosterol:cholesterol, in words ([4]; Table in FIG. 8, pooled doses, 12 weeks): significantly increased; Campesterol Ratio: Mean change (sterol:cholesterol) [4]: −78.6* 10^2 mmol/mol; Desmosterol Ratio: Mean change (sterol:cholesterol) [4]: 25.7* 10^2 mmol/mol; Lathosterol Ratio: Mean change (sterol:cholesterol) [4]: 36.8* 10^2 mmol/mol; Sitosterol Ratio: Mean change (sterol:cholesterol) [4]: −37.8* 10^2 mmol/mol; Campesterol % change (Mean % change) [4]: −50.5* %; Desmosterol % change (Mean % change) [4]: 16.1%; Lathosterol % change (Mean % change) [4]: 35.5* %; Sitosterol % change (Mean % change) [4]: −46.5* %
3 | CCC(C)(C)C(=O)O[C@H]1C[C@@H](C)C=C2C=C[C@H](C)[C@H](CC[C@@H]3C[C@@H](O)CC(=O)O3)[C@H]21 [SIMVA, simvastatin] |  |  |  |  |  |  |  |  |  |  |  |  |  |  |  |  | 7.2 ± 0.8 | −37.1 ± 0.9 | −26.8 ± 0.7 | −20.4 ± 1.5 | effect on concentrations of sitosterol and campesterol (baseline to endpoint), in words ([4]; pooled doses, 12 weeks): no significant effect; Campesterol Ratio: Mean change (sterol:cholesterol) [4]: 39.8* 10^2 mmol/mol; Desmosterol Ratio: Mean change (sterol:cholesterol) [4]: −22.8* 10^2 mmol/mol; Lathosterol Ratio: Mean change (sterol:cholesterol) [4]: −37.8* 10^2 mmol/mol; Sitosterol Ratio: Mean change (sterol:cholesterol) [4]: 21.4* 10^2 mmol/mol; Campesterol % change (Mean % change) [4]: −1.6* %; Desmosterol % change (Mean % change) [4]: −48.0* %; Lathosterol % change (Mean % change) [4]: −53.5* %; Sitosterol % change (Mean % change) [4]: −3.3* %
